Earlier results, collected in patent US20110151497A1, “METABOLOMIC PROFILING OF PROSTATE CANCER” (THE REGENTS OF THE UNIVERSITY OF MICHIGAN, priority 2009, published 2011).

Conditions: humans, isotope labeling

fraction of dietary stearic acid oxidatively desaturated to oleic acid relative to fraction of palmitic acid converted to palmitoleic acid: 2.4 times
Compound: CCCCCCCCCCCCCCCCCC(=O)O [stearic acid]
